Measured values: ChEMBL document CHEMBL4665777, “Bioactive Alkaloids from the Actinomycete Actinoalloteichus sp. ZZ1866” (J Nat Prod, 2020)
Active and inactive are the calls of the source. The rule behind the calls is not given here.

How the values were obtained:
Candida albicans = test: Antimicrobial activity against Candida albicans at 50 ug/ml after 12 hrs by microbroth dilution method; type: functional, organism-based
Escherichia coli = test: Antimicrobial activity against Escherichia coli at 50 ug/ml after 12 hrs by microbroth dilution method; type: functional, organism-based
U-251 [1] = test: Antiproliferative activities against human U-251 cells by SRB assay; type: functional, cell-based
Staphylococcus aureus = test: Antimicrobial activity against methicillin-resistant Staphylococcus aureus at 50 ug/ml after 12 hrs by microbroth dilution method; type: functional, organism-based
U-87 MG [2] = test: Antiproliferative activities against human U-87 MG cells by SRB assay; type: functional, cell-based, U-87MG ATCC
U-251 [3] = test: Antiproliferative activities against human U-251 cells at 50 uM by SRB assay; type: functional, cell-based
U-87 MG [4] = test: Antiproliferative activities against human U-87 MG cells at 50 uM by SRB assay; type: functional, cell-based; conditions: u-87mg atcc

Row | SMILES | Activity (Candida albicans) | Activity (Escherichia coli) | IC50 (U-251 [1]) [µM] | Activity (Staphylococcus aureus) | IC50 (U-87 MG [2]) [µM] | IC50 (U-251 [3]) | IC50 (U-87 MG [4])
1 | CO[C@@]1(C)N(C[C@@H](O)c2ccccc2)C(=O)c2cc3c4ccccc4n(C)c3c(=O)n21 | inactive | inactive | 36 | inactive | 29 |  | 
2 | Cn1c2ccccc2c2cc(C(=O)NCCc3ccccc3)[nH]c(=O)c21 | inactive | inactive | 13 | inactive | 11 |  | 
3 | CO[C@@]1(C)N(/C=C\c2ccccc2)C(=O)c2cc3c4ccccc4n(C)c3c(=O)n21 | inactive | inactive | 12 | inactive | 2.3 |  | 
4 | CCCCCc1[nH]c(=O)c2cnccc2c1C | inactive | inactive |  | inactive |  | Not Active | Not Active
5 | Cn1c2ccccc2c2cc3n(c(=O)c21)[C@@](C)(O)N(CCc1ccccc1)C3=O | inactive | inactive |  | inactive |  | Not Active | Not Active
6 | CC(=O)NC[C@H](OC(=O)c1cc2c3ccccc3n(C)c2c(=O)[nH]1)c1ccccc1 | inactive | inactive | 15 | inactive | 19 |  | 
7 | CO[C@@]1(C)N(/C=C/c2ccccc2)C(=O)c2cc3c([nH]c4ccccc43)c(=O)n21 | inactive | inactive | 36 | inactive | 43 |  | 
8 | O=C(NCCc1ccccc1)c1cc2c([nH]c3ccccc32)c(=O)[nH]1 | inactive | inactive |  | inactive |  | Not Active | Not Active
9 | CC(=O)c1nc(C(=O)NCCc2ccccc2)cc2c3ccccc3n(C)c12 | inactive | inactive | 12 | inactive | 7.4 |  | 
10 | CC(=O)c1nc(C(=O)NC[C@H](O)c2ccccc2)cc2c3ccccc3n(C)c12 | inactive | inactive |  | inactive |  | Not Active | Not Active
11 | COc1cccc2c1C(=O)c1c(O)c3c(c(O)c1C2=O)C[C@@](O)(C(=O)CO)C[C@@H]3O[C@H]1C[C@H](N)[C@H](O)[C@H](C)O1 [DOXORUBICIN] |  |  | 3.9 |  | 0.6 |  | 
12 | CO[C@@]1(C)N(/C=C\c2ccccc2)C(=O)c2cc3c([nH]c4ccccc43)c(=O)n21 | inactive | inactive |  | inactive |  | Not Active | Not Active
13 | CO[C@@]1(C)N(CCc2ccccc2)C(=O)c2cc3c4ccccc4n(C)c3c(=O)n21 | inactive | inactive | 27 | inactive | 8.9 |  | 
14 | COc1cc(/C=N/OCCc2ccccc2)nc(-c2ccccn2)c1 | inactive | inactive | 2 | inactive | 6.5 |  | 
15 | CO[C@@]1(C)N(C[C@H](O)c2ccccc2)C(=O)c2cc3c4ccccc4n(C)c3c(=O)n21 | inactive | inactive | 19 | inactive | 17 |  | 
16 | CC(=O)c1nc(C(=O)NCCc2ccccc2)cc2c1[nH]c1ccccc12 | inactive | inactive | 12 | inactive | 13 |  | 
17 | CO[C@@]1(C)N(/C=C/c2ccccc2)C(=O)C2=C[C@@]3(C(=O)N(C)c4ccccc43)C(=O)N21 | inactive | inactive | 5.8 | inactive | 7.2 |  | 
18 | CO[C@@]1(C)N(/C=C/c2ccccc2)C(=O)c2cc3c4ccccc4n(C)c3c(=O)n21 | inactive | inactive | 17 | inactive | 4.5 |  | 
